# Measured values: patent US11053204B2, “Pyrimidinyloxy benzene derivatives as herbicides” (FMC Corporation, priority 2015, dated 2021)
# Tests used:
# Format in all cases: in vivo
# [1] = system: barnyardgrass (Echinochloa crus-galli); assay: Test C flooded paddy test, plant response rating; conditions: flood, scale 0 to 100
# Description: (§1) At the same time, plants selected from these crop and weed species and also chickweed (common chickweed, Stellaria media), buckwheat, wild (wild buckwheat, Polygonum convolvulus), wild mustard (Sinapis arvensis), field poppy (Papaver rhoeas), field violet (Viola arvensis), geranium, cutleaf (cutleaf geranium, Geranium dissectum), Canada thistle (Cirsium arvense), and speedwell (bird's-eye speedwell, Veronica persica), were planted in pots containing Sunshine Redi-Earth® planting medium comprising spaghnum peat moss, vermiculite, starter nutrients and dolomitic limestone and treated with postemergence applications of test chemicals formulated in the same manner. Plants ranged in height from 2 to 18 cm (1- to 4-leaf stage) for postemergence treatments. Treated plants and controls were maintained in a greenhouse for 13 to 15 d, after which time all species were compared to controls and visually evaluated. Plant response ratings, summarized in Table C, are based on a scale of 0 to 100 where 0 is no effect and 100 is complete control. A dash (-) response means no test result.
# (§2) Plant species in the flooded paddy test consisted of rice (Oryza sativa), sedge, umbrella (small-flower umbrella sedge Cyperus difformis), ducksalad (Heteranthera limosa), and barnyardgrass (Echinochloa crus-galli) grown to the 2-leaf stage for testing. At time of treatment, test pots were flooded to 3 cm above the soil surface, treated by application of test compounds directly to the paddy water, and then maintained at that water depth for the duration of the test.
# [2] = system: ducksalad (Heteranthera limosa); assay: Test C flooded paddy test, plant response rating; conditions: flood, scale 0 to 100
# Description: as §1, §2
# [3] = system: rice (Oryza sativa); assay: Test C flooded paddy test, plant response rating; conditions: flood, scale 0 to 100
# Description: as §1, §2
# [4] = system: sedge, umbrella (small-flower umbrella sedge Cyperus difformis); assay: Test C flooded paddy test, plant response rating; conditions: flood, scale 0 to 100
# Description: as §1, §2
# [5] = system: barnyardgrass (Echinochloa crus-galli); assay: Test B flooded paddy test, plant response rating; conditions: 250 g ai/ha; Flood; scale of 0 to 100 where 0 is no effect and 100 is complete control; 13 to 15 days
# Summary of the method: (§3)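 Test compounds are applied straight into paddy water held 3 cm above the soil surface, with that flood maintained for the whole test. After 13 to 15 days in the greenhouse, each species is scored visually relative to controls.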
# [6] = system: sedge, umbrella (small-flower umbrella sedge, Cyperus difformis); assay: Test B flooded paddy test, plant response rating; conditions: 250 g ai/ha; Flood; scale of 0 to 100 where 0 is no effect and 100 is complete control; 13 to 15 days
# Summary of the method: as §3
# [7] = system: ducksalad (Heteranthera limosa); assay: Test B flooded paddy test, plant response rating; conditions: 250 g ai/ha; Flood; scale of 0 to 100 where 0 is no effect and 100 is complete control; 13 to 15 days
# Summary of the method: as §3
# [8] = system: rice (Oryza sativa); assay: Test B flooded paddy test, plant response rating; conditions: 250 g ai/ha; Flood; scale of 0 to 100 where 0 is no effect and 100 is complete control; 13 to 15 days
# Summary of the method: as §3
# [9] = system: barnyardgrass (Echinochloa crus-galli); assay: Test A preemergence, visual injury rating
# Summary of the method: (§4)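 Visual injury scored 0–100 (100 = complete control) against untreated controls about 10 days after treatment in a greenhouse. Test chemicals, formulated with surfactant in non-phytotoxic solvent, were sprayed on soil preemergence or on 2-10 cm, one- to two-leaf plants postemergence.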
# [10] = system: ragweed (common ragweed, Ambrosia elatior); assay: Test A preemergence, visual injury rating
# Summary of the method: as §4
# [11] = system: kochia (Kochia scoparia); assay: Test A preemergence, visual injury rating
# Summary of the method: as §4
# [12] = system: pigweed (Amaranthus retroflexus); assay: Test A preemergence, visual injury rating
# Summary of the method: as §4
# [13] = system: giant foxtail (Setaria faberii); assay: Test A preemergence, visual injury rating
# Summary of the method: as §4
# [14] = system: Italian ryegrass (Lolium multiflorum); assay: Test A preemergence, visual injury rating
# Summary of the method: as §4
# [15] = system: barnyardgrass (Echinochloa crus-galli); assay: Test A postemergence, visual injury rating
# Summary of the method: as §4
# [16] = system: corn (Zea mays); assay: Test A postemergence, visual injury rating
# Summary of the method: as §4
# [17] = system: ragweed (common ragweed, Ambrosia elatior); assay: Test A postemergence, visual injury rating
# Summary of the method: as §4
# [18] = system: kochia (Kochia scoparia); assay: Test A postemergence, visual injury rating
# Summary of the method: as §4
# [19] = system: pigweed (Amaranthus retroflexus); assay: Test A postemergence, visual injury rating
# Summary of the method: as §4
# [20] = system: galium (catchweed bedstraw, Galium aparine); assay: Test A postemergence, visual injury rating
# Summary of the method: as §4
# [21] = system: giant foxtail (Setaria faberii); assay: Test A postemergence, visual injury rating
# Summary of the method: as §4
# [22] = system: wheat (Triticum aestivum); assay: Test A postemergence, visual injury rating
# Summary of the method: as §4
# [23] = system: Italian ryegrass (Lolium multiflorum); assay: Test A postemergence, visual injury rating
# Summary of the method: as §4
# [24] = system: blackgrass (Alopecurus myosuroides); assay: Test A postemergence, visual injury rating
# Summary of the method: as §4
# [25] = 31 g ai/ha, 0 to 100 scale, 0 no effect, 100 complete control
# [26] = 125 g ai/ha, 0 to 100 scale (0 no effect, 100 complete control)
# [27] = 31 g ai/ha, 0 to 100 scale, 0 is no effect, 100 is complete control, approximately 10 days
# [28] = 125 g ai/ha, 0 is no effect, 100 is complete control
# [29] = 31 g ai/ha, 0 to 100 scale (0 no effect, 100 complete control)
# [30] = 125 g ai/ha, 0 to 100 scale, 0 is no effect, 100 is complete control, approximately 10 days
smiles,measurement,setting,value
FC(F)(F)COCc1c(Br)cccc1Oc1ncc(Cl)cn1 [Compound 62],Barnyardgrass plant response rating,[1]; 16 g ai/ha,0
same,Barnyardgrass plant response rating,[1]; 31 g ai/ha,0
same,Barnyardgrass plant response rating,[1]; 62 g ai/ha,0
same,Barnyardgrass plant response rating,[1]; 125 g ai/ha,20
same,Ducksalad plant response rating,[2]; 16 g ai/ha,0
same,Ducksalad plant response rating,[2]; 31 g ai/ha,0
same,Ducksalad plant response rating,[2]; 62 g ai/ha,40
same,Ducksalad plant response rating,[2]; 125 g ai/ha,75
same,Rice plant response rating,[3]; 16 g ai/ha,0
same,Rice plant response rating,[3]; 31 g ai/ha,0
same,Rice plant response rating,[3]; 62 g ai/ha,0
same,Rice plant response rating,[3]; 125 g ai/ha,10
same,"Sedge, Umbrella plant response rating",[4]; 16 g ai/ha,0
same,"Sedge, Umbrella plant response rating",[4]; 31 g ai/ha,0
same,"Sedge, Umbrella plant response rating",[4]; 62 g ai/ha,60
same,"Sedge, Umbrella plant response rating",[4]; 125 g ai/ha,65
same,"Plant response rating, Barnyardgrass",[5],40
same,"Plant response rating, Sedge, Umbrella",[6],90
same,"Plant response rating, Ducksalad",[7],100
same,"Plant response rating, Rice",[8],0
same,"Plant response rating, Barnyardgrass",[9]; [25],30
same,Barnyardgrass plant response rating,[9]; [26],70
same,"Plant response rating, Ragweed",[10]; [25],0
same,Ragweed plant response rating,[10]; [26],0
same,"Plant response rating, Kochia",[11]; [25],20
same,Kochia plant response rating,[11]; [26],70
same,"Plant response rating, Pigweed",[12]; [25],60
same,Pigweed plant response rating,[12]; [26],90
same,"Plant response rating, Foxtail, Giant",[13]; [25],30
same,"Foxtail, Giant plant response rating",[13]; [26],100
same,"Plant response rating, Ryegrass, Italian",[14]; [25],0
same,"Ryegrass, Italian plant response rating",[14]; [26],10
same,Barnyardgrass plant response rating,[15]; [27],20
same,Barnyardgrass plant response rating (0 to 100 scale),[15]; [28],40
same,Corn plant response rating,[16]; [27],0
same,Corn plant response rating (0 to 100 scale),[16]; [28],30
same,Ragweed plant response rating,[17]; [27],0
same,Ragweed plant response rating (0 to 100 scale),[17]; [28],0
same,Kochia plant response rating,[18]; [27],60
same,Kochia plant response rating (0 to 100 scale),[18]; [28],100
same,Pigweed plant response rating,[19]; [27],50
same,Pigweed plant response rating (0 to 100 scale),[19]; [28],90
same,Galium plant response rating,[20]; [27],30
same,Galium plant response rating (0 to 100 scale),[20]; [28],80
same,"Foxtail, Giant plant response rating",[21]; [27],0
same,"Foxtail, Giant plant response rating (0 to 100 scale)",[21]; [28],40
same,Wheat plant response rating,[22]; [27],0
same,Wheat plant response rating (0 to 100 scale),[22]; [28],0
same,"Ryegrass, Italian plant response rating",[23]; [27],0
same,"Ryegrass, Italian plant response rating (0 to 100 scale)",[23]; [28],0
same,Blackgrass plant response rating,[24]; [27],0
same,Blackgrass plant response rating (0 to 100 scale),[24]; [28],40
N#CC(CCCCC(F)(F)F)c1ccccc1Oc1ncc(Cl)cn1 (stereo not shown) [Compound 145],"Plant response rating, Barnyardgrass",[5],50
same,"Plant response rating, Sedge, Umbrella",[6],100
same,"Plant response rating, Ducksalad",[7],100
same,"Plant response rating, Rice",[8],30
same,"Plant response rating, Barnyardgrass",[9]; [25],40
same,"Plant response rating, Barnyardgrass",[9]; [26],80
same,"Plant response rating, Ragweed",[10]; [25],0
same,"Plant response rating, Ragweed",[10]; [26],30
same,"Plant response rating, Kochia",[11]; [25],0
same,"Plant response rating, Kochia",[11]; [26],40
same,"Plant response rating, Pigweed",[12]; [25],100
same,"Plant response rating, Pigweed",[12]; [26],100
same,"Plant response rating, Foxtail, Giant",[13]; [25],90
same,"Plant response rating, Foxtail, Giant",[13]; [26],100
same,"Plant response rating, Ryegrass, Italian",[14]; [25],10
same,"Plant response rating, Ryegrass, Italian",[14]; [26],50
same,Barnyardgrass plant response rating,[15]; [29],30
same,Barnyardgrass plant response rating,[15]; [30],80
same,Corn plant response rating,[16]; [29],30
same,Corn plant response rating,[16]; [30],50
same,Ragweed plant response rating,[17]; [29],10
same,Ragweed plant response rating,[17]; [30],20
same,Kochia plant response rating,[18]; [29],70
same,Kochia plant response rating,[18]; [30],90
same,Pigweed plant response rating,[19]; [29],90
same,Pigweed plant response rating,[19]; [30],100
same,Galium plant response rating,[20]; [29],40
same,Galium plant response rating,[20]; [30],80
same,"Foxtail, Giant plant response rating",[21]; [29],50
same,"Foxtail, Giant plant response rating",[21]; [30],70
same,Wheat plant response rating,[22]; [29],10
same,Wheat plant response rating,[22]; [30],30
same,"Ryegrass, Italian plant response rating",[23]; [29],10
same,"Ryegrass, Italian plant response rating",[23]; [30],40
same,Blackgrass plant response rating,[24]; [29],40
same,Blackgrass plant response rating,[24]; [30],60
N#Cc1cccc(Oc2ncc(Cl)cn2)c1NCCCC(F)(F)F [Compound 146],"Plant response rating, Barnyardgrass",[5],40
same,"Plant response rating, Sedge, Umbrella",[6],85
same,"Plant response rating, Ducksalad",[7],100
same,"Plant response rating, Rice",[8],35
same,"Plant response rating, Barnyardgrass",[9]; [25],20
same,"Plant response rating, Barnyardgrass",[9]; [26],100
same,"Plant response rating, Ragweed",[10]; [25],0
same,"Plant response rating, Ragweed",[10]; [26],0
same,"Plant response rating, Kochia",[11]; [25],60
same,"Plant response rating, Kochia",[11]; [26],80
same,"Plant response rating, Pigweed",[12]; [25],60
same,"Plant response rating, Pigweed",[12]; [26],100
same,"Plant response rating, Foxtail, Giant",[13]; [25],80
same,"Plant response rating, Foxtail, Giant",[13]; [26],100
same,"Plant response rating, Ryegrass, Italian",[14]; [25],0
same,"Plant response rating, Ryegrass, Italian",[14]; [26],50
same,Barnyardgrass plant response rating,[15]; [29],30
same,Barnyardgrass plant response rating,[15]; [30],90
same,Corn plant response rating,[16]; [29],20
same,Corn plant response rating,[16]; [30],80
same,Ragweed plant response rating,[17]; [29],0
same,Ragweed plant response rating,[17]; [30],30
same,Kochia plant response rating,[18]; [29],70
same,Kochia plant response rating,[18]; [30],100
same,Pigweed plant response rating,[19]; [29],60
same,Pigweed plant response rating,[19]; [30],70
same,Galium plant response rating,[20]; [29],70
same,Galium plant response rating,[20]; [30],100
same,"Foxtail, Giant plant response rating",[21]; [29],30
same,"Foxtail, Giant plant response rating",[21]; [30],90
same,Wheat plant response rating,[22]; [29],20
same,Wheat plant response rating,[22]; [30],20
same,"Ryegrass, Italian plant response rating",[23]; [29],0
same,"Ryegrass, Italian plant response rating",[23]; [30],70
same,Blackgrass plant response rating,[24]; [29],30
same,Blackgrass plant response rating,[24]; [30],90
